Molecular target: T1, human S1P1 receptor (Homo sapiens, UniProt P21453)
T1 construct: expressed in transfected cells; host or cells: cells stably expressing the S1P1 receptor; membranes used
Assay: GTP γ35S binding assay for S1P1 activity
Assay type: biochemical
Settings: membranes of cells stably expressing the S1P1 receptor; agonist-induced GTP γ35S binding; read-out: EC50 at the S1P1 receptor from GTP γ35S
Protocol: Novel compounds were synthesized and tested for S1P1 activity using the GTP γ^35S binding assay. These compounds may be assessed for their ability to activate or block activation of the human S1P1 receptor in cells stably expressing the S1P1 receptor. […] binding was measured in the medium containing (mM) HEPES 25, pH 7.4, MgCl2 10, NaCl 100, dithitothreitol 0.5, digitonin 0.003%, 0.2 nM GTP γ^35S, and 5 μg membrane protein in a volume of 150 μl. Test compounds were included in the concentration range from 0.08 to 5,000 nM unless indicated otherwise. Membranes were incubated with 100 μM 5′-adenylylimmidodiphosphate for 30 min, and subsequently with 10 μM GDP for 10 min on ice. Drug solutions and membrane were mixed, and then reactions were initiated by adding GTP γ^35 S and continued for 30 min at 25° C. Reaction mixtures were filtered over Whatman GF/B filters under vacuum, and washed three times with 3 mL of ice-cold buffer (HEPES 25, pH7.4, MgCl2 10 and NaCl 100). Filters were dried and mixed with scintillant, and counted for ^35S activity using a β-counter. Agonist-induced GTP γ^35 S binding was obtained by subtracting that in the absence of agonist. Binding data were analyzed using a non-linear regression method. In case of antagonist assay, the reaction mixture contained 10 nM […] in the presence of test antagonist at concentrations ranging from 0.08 to 5000 nM.

T1 sequence (P21453 whole entry): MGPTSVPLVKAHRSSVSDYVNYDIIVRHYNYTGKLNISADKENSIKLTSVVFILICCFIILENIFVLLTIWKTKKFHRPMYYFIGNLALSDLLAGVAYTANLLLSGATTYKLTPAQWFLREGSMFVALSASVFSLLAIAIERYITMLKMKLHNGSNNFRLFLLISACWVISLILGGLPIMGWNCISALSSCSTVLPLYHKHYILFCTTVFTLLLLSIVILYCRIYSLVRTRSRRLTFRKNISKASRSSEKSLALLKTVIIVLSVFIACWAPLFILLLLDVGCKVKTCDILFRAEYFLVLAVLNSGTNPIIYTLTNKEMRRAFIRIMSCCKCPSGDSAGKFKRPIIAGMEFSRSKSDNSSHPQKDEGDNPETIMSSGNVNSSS

O=C(O)C1CN(Cc2ccc(C#CCCCCc3ccccc3)c3cccnc23)C1 [Compound 1]
EC50: 390 nM

Source: patent publication US8507686B2, “Substituted bicyclic methyl azetidines as sphingosine-1 phosphate receptors modulators” (Allergan, Inc., priority 2011, dated 2013)
